Assay results published in patent publication US9101635B2 (priority 2009, dated 2015).
Like-named read-outs stand apart in the source and are kept apart here.

Columns and labels:
[1] = tested on: HIV/EBOV-GP pseudotype virus; assay: microbe, parasite or virus in culture; type: cell-based, EBOV Zaire strain; conditions: Human immunodeficiency virus 1, HEK-293T; for inhibition at 25 µM: read-out: Inhibition of pseudotype virus at 25 μM in 293T cells (%) HIV/EBOV-GP
in vitro [2] = conditions: human
[3] = tested on: recombinant Zaire EBOV expressing green fluorescent protein (GFP-ZEBOV); assay: microbe, parasite or virus in culture; type: cell-based, EBOV (Zaire subtype, 1995 strain); conditions: for IC50 / IC90: Zaire ebolavirus, Vero C1008, 48 h; for IC50: read-out: GFP-ZEBOV IC50 (μM); for IC90: read-out: GFP-ZEBOV IC90 (μM)
in vitro [4] = conditions: African green monkey, GFP-ZEBOV CC50 (μM)
[5] = tested on: HIV/VSV-G pseudotype virus; assay: microbe, parasite or virus in culture; type: cell-based, vesicular stomatitis virus; conditions: Human immunodeficiency virus 1, HEK-293T; read-out: Inhibition of pseudotype virus at 25 μM in 293T cells (%) HIV/VSV-GP
[6] = tested on: HIV/EBOV-GP pseudotype virus; type: cell-based, EBOV Zaire strain
[7] = tested on: HIV/VSV-G pseudotype virus; type: cell-based, vesicular stomatitis virus
[8] = tested on: HIV/EBOV-GP pseudotype virus; assay: microbe, parasite or virus in culture; type: cell-based, EBOV Zaire strain; conditions: Human immunodeficiency virus 1, HEK-293T
Vero E6 cells = conditions: African green monkey
[9] = read-out: HIV/EBOV-Gp IC90 (μM)
[10] = read-out: IC90 (μM) against HIV/EBOV-GP

SMILES | IC50 [1] [µM] | IC90 [1, 9] [µM] | IC90 [1, 10] [µM] | inhibition at 25 µM [1] [%] | CC50 (in vitro [2]) [µM] | IC50 [3] [µM] | IC90 [3] [µM] | CC50 (in vitro [4]) [µM] | inhibition at 25 µM [5] [%] | also measured
Oc1ccccc1C1=Nc2ccccc2N=C(c2cccs2)C1 [Compound G8] | > 100 | – | – | – | – | – | – | – | – | –
Oc1ccc(Cl)cc1C1=Nc2ccccc2N=C(c2ccco2)C1 [Compound G9] | > 100 | – | – | – | – | – | – | – | – | –
Oc1ccccc1C1=Nc2ccccc2N=C(c2ccco2)C1 [Compound G11] | > 100 | – | – | – | – | – | – | – | – | –
FC(F)(F)C(F)(F)C1=Nc2ccccc2N=C(c2ccccc2)C1 [Compound G3] | 70.9 | – | – | – | – | – | – | – | – | –
Oc1ccccc1C1=Nc2ccccc2N=C(C(F)(F)F)C1 [Compound G5] | 70.7 | – | – | – | – | – | – | – | – | –
O=[N+]([O-])c1cccc(C2=Nc3ccccc3N=C(c3ccccc3O)C2)c1 [Compound G12] | > 100 | – | – | – | – | – | – | – | – | –
O=C(Nc1ccc(Cl)c(Cl)c1)c1ccc([N+](=O)[O-])o1 [E] | – | 20.8 | 20.8 | 98 | 54 | 14.5 | 20 | 40 | 25 | –
Cc1ccc(N(c2ccc(C)cc2)c2cccnc2)cc1 [H] | – | 23.5 | 23.5 | 100 | > 50 | 20 | > 25 | 22.6 | 30 | GFP-ZEBOV percentage in parentheses beside IC90 >25 [3]: >25 (59%)
CCCNC(=O)[C@H]1O[C@@H]1C(=O)N[C@H](C(=O)N1CCC[C@H]1C(=O)O)[C@@H](C)CC [CA-074] | – | – | – | – | – | – | – | – | – | inhibition of HIV/EBOV-GP infection [6]: strongly inhibited; inhibition of HIV/VSV-G infectivity [7]: not
O=c1c2ccccc2nc(/C=C/c2ccc([N+](=O)[O-])o2)n1-c1cccc(C(F)(F)F)c1 [D] | – | 1.1 | 1.1 | 100 | 30 | 15.5 | > 25 | > 50 | 15 | inhibition at 10 µM ([8]; read-out: inhibition of infection, Assay 4: compounds pre-incubated with 293T cells at 4° C. before virus): > 75%; GFP-ZEBOV percentage in parentheses beside IC90 >25 [3]: >25 (85%); CC50 (Vero E6 cells): 62.5 µM
COc1cccc(C(CC(=O)c2ccc(Cl)cc2)C(C#N)C#N)c1 (centres unmarked) [B] | – | 7.6 | 7.6 | 100 | 25 | 10 | 20 | > 50 | 10 | inhibition at 10 µM ([8]; read-out: inhibition of HIV/EBOV-GP infection, Assay 3: compounds pre-incubated with the virus for 1 hour at 37° C.): > 75%; CC50 (Vero E6 cells): 51.5 µM
FC(F)(F)C(F)(F)C1=Nc2cc(Cl)c(Cl)cc2N=C(c2ccccc2)C1 [Compound G4] | 3.7 | – | – | – | – | – | – | – | – | –
